Results on two compounds are retold here after ChEMBL document CHEMBL4507317, “Data for DCP probe BAY-899” (2021).

The target of assay [1] is 5-hydroxytryptamine receptor 2B (Homo sapiens, UniProt P41595). Kind of assay: GPCRScan assay: inhibition of 5-HT2B. Also on record: radioligand conc. used [nm] 1.0 – 2.0, parental cells stable HEK.
The target in assay [2] is 5-hydroxytryptamine receptor 2C (Homo sapiens, UniProt P28335). Kind of assay: GPCRScan assay: inhibition of 5-HT2C. Also on record: radioligand conc. used [nm] 1.0 – 2.5, parental cells HEK T.
Assay [3] addresses Prostaglandin E2 receptor EP3 subtype (Homo sapiens) (UniProt P43115). Kind of assay: EP3 Eurofins Bayer panel. The following applies: Compound concentration 10.0 uM.
The target of assay [4] is 5-hydroxytryptamine receptor 6 (Homo sapiens) (UniProt P50406). Kind of assay: 5-HT6 Eurofins Bayer panel. The conditions noted are these: Compound concentration 10.0 uM.
Assay [5] concerns the target Kappa-type opioid receptor (Homo sapiens, UniProt P41145). Kind of assay: kappa (KOP) Eurofins Bayer panel. The following applies: Compound concentration 10.0 uM.
Assay [6] has as its target Somatostatin receptor type 4 (Homo sapiens) (UniProt P31391). Kind of assay: sst4 Eurofins Bayer panel. The following applies: Compound concentration 10.0 uM.
The target in assay [7] is 5-hydroxytryptamine receptor 7 (Homo sapiens) (UniProt P34969). The following applies: Compound concentration 10.0 uM.
Assay [8] has as its target Motilin receptor (Homo sapiens) (UniProt O43193). Kind of assay: Motilin Eurofins Bayer panel. The conditions noted are these: Compound concentration 10.0 uM.
Assay [9] deals with Cannabinoid receptor 1 (Homo sapiens) (UniProt P21554). Kind of assay: CB1 Eurofins Bayer panel. The conditions noted are these: Compound concentration 10.0 uM.
Assay [10] concerns the target D(1A) dopamine receptor (Homo sapiens) (UniProt P21728). Kind of assay: D1 Eurofins Bayer panel. The following applies: Compound concentration 10.0 uM.
Assay [11] addresses Mu-type opioid receptor (Homo sapiens) (UniProt P35372). Kind of assay: mu (MOP) Eurofins Bayer panel. The conditions noted are these: Compound concentration 10.0 uM.
Assay [12] has as its target T1, Alpha-1A adrenergic receptor (Homo sapiens) (UniProt P35348).
T1 sequence (whole entry): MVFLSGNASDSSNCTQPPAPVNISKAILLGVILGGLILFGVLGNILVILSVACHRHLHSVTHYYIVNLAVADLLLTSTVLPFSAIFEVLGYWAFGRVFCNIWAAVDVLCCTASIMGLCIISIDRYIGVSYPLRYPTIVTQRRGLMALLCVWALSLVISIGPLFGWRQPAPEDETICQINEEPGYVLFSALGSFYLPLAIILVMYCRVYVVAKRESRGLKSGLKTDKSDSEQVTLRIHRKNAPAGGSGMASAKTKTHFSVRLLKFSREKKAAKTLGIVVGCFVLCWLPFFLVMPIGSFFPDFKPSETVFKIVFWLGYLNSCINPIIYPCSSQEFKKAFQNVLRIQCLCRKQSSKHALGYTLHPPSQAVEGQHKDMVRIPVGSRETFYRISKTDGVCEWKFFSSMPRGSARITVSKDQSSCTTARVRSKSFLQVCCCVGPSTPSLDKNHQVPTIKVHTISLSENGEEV
Kind of assay: alpha 1A Eurofins Bayer panel. The conditions noted are these: Compound concentration 10.0 uM.

Assay [13] addresses T2, Muscarinic acetylcholine receptor M1 (Homo sapiens) (UniProt P11229).
T2 sequence (whole entry): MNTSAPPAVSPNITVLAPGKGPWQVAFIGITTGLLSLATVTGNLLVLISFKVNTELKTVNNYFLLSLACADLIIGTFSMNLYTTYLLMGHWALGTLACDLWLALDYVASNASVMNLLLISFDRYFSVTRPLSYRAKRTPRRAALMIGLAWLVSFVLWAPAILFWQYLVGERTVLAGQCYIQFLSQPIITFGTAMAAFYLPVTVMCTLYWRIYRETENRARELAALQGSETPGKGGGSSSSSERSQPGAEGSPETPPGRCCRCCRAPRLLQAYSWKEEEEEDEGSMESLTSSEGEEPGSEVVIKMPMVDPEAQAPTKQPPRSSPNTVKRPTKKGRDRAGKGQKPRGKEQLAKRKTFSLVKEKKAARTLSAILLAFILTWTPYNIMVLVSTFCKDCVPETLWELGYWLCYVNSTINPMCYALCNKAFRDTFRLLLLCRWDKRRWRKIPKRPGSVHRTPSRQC
Kind of assay: M1 Eurofins Bayer panel. The conditions noted are these: Compound concentration 10.0 uM.

Somatostatin receptor type 4 (Homo sapiens), sequence (P31391 whole entry): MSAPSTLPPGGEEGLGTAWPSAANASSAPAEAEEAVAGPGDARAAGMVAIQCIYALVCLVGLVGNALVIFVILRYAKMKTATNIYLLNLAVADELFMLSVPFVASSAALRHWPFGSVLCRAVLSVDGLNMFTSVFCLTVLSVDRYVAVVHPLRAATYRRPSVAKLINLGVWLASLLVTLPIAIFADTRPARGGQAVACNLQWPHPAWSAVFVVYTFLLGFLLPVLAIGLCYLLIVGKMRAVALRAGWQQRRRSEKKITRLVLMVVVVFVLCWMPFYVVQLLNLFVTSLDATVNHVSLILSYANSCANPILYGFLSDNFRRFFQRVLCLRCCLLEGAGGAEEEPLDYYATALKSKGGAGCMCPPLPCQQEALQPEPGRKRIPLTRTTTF
Prostaglandin E2 receptor EP3 subtype (Homo sapiens), sequence (P43115 whole entry): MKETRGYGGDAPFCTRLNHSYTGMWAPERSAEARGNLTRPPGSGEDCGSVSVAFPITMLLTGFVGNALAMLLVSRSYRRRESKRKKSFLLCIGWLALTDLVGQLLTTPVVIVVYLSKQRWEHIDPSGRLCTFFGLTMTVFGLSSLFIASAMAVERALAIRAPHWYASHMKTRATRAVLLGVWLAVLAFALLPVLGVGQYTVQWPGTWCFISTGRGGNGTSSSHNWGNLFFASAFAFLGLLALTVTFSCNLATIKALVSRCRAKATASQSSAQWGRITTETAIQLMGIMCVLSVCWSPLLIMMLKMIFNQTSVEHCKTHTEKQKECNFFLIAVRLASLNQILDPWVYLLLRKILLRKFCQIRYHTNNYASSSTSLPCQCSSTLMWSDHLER
5-hydroxytryptamine receptor 6 (Homo sapiens), sequence (P50406 whole entry): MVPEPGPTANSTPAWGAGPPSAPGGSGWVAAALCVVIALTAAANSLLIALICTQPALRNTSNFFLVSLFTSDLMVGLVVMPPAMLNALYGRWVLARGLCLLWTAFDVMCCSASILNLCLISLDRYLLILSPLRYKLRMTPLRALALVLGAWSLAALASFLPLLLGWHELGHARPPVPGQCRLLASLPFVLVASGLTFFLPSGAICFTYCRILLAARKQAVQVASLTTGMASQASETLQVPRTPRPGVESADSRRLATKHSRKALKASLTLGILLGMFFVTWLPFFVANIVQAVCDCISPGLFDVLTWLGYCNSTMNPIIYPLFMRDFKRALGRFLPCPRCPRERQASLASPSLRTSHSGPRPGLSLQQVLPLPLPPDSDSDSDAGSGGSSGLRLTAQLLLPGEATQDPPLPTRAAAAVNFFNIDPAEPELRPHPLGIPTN
Cannabinoid receptor 1 (Homo sapiens), sequence (P21554 whole entry): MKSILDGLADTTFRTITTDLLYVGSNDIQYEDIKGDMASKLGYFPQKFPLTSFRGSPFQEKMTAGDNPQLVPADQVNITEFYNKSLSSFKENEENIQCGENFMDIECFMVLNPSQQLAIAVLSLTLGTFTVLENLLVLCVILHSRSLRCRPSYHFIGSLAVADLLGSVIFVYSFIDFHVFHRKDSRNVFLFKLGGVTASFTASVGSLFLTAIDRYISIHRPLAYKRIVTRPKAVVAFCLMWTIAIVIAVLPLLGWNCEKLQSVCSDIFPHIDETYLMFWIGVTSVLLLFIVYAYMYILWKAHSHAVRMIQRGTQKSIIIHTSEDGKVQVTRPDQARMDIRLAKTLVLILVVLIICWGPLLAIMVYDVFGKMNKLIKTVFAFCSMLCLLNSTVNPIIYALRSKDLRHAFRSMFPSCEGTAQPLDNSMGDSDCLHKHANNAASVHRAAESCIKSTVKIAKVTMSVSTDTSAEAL
Mu-type opioid receptor (Homo sapiens), sequence (P35372 whole entry): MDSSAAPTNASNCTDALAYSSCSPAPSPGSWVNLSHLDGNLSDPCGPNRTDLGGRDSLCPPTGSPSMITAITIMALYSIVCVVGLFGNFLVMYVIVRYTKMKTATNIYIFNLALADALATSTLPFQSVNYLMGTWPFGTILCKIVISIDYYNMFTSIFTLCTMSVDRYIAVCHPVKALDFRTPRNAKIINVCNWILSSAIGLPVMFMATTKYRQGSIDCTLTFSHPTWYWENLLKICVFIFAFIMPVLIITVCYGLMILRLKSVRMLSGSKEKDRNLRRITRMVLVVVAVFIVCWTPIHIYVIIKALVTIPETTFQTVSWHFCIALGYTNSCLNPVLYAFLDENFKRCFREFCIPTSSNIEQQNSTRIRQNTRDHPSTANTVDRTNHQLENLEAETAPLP
Motilin receptor (Homo sapiens), sequence (O43193 whole entry): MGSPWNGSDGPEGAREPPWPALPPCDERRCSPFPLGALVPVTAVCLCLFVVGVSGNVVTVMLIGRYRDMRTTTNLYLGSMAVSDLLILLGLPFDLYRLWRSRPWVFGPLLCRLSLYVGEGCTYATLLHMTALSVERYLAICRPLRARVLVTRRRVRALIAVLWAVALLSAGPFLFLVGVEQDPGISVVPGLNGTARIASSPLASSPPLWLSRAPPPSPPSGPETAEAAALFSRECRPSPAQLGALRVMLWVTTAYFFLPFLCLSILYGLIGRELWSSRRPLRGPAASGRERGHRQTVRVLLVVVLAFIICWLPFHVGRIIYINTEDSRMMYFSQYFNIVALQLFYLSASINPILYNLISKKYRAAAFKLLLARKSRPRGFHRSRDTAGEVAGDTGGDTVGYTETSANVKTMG
Kappa-type opioid receptor, sequence (P41145 whole entry): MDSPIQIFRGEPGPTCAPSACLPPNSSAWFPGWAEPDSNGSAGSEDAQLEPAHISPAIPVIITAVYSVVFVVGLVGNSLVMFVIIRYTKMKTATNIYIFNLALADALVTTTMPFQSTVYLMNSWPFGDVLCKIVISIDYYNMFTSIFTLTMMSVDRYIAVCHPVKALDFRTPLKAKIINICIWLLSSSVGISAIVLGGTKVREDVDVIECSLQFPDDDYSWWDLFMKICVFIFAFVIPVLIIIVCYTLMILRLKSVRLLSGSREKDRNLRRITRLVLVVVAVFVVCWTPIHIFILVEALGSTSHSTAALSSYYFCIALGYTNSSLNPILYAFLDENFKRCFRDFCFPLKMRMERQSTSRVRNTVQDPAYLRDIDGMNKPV
D(1A) dopamine receptor (Homo sapiens), sequence (P21728 whole entry): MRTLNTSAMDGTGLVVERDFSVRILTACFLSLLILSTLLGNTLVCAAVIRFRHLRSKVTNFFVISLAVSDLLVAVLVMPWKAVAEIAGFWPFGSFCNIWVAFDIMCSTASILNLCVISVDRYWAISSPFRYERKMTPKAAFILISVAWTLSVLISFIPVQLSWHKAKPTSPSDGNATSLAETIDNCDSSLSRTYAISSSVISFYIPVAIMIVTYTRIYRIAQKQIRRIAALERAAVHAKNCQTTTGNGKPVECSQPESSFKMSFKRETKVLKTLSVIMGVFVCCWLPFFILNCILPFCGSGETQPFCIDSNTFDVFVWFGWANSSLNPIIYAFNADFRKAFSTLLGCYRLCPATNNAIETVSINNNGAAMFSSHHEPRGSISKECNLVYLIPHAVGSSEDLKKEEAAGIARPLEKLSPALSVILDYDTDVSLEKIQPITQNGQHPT
5-hydroxytryptamine receptor 2B, sequence (P41595 whole entry): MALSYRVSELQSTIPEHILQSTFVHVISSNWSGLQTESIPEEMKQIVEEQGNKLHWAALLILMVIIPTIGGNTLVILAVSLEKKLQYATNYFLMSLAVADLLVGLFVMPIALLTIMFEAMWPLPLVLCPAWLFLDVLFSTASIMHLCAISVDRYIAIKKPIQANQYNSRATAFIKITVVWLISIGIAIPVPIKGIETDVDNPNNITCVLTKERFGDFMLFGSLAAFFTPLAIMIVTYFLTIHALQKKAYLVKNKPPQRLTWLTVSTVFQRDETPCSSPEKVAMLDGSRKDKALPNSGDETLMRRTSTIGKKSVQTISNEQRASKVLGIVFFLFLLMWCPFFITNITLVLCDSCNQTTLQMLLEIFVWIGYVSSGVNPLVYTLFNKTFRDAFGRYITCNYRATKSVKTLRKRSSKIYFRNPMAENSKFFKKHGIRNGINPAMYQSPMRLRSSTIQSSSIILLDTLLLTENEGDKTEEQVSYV
5-hydroxytryptamine receptor 2C, sequence (P28335 whole entry): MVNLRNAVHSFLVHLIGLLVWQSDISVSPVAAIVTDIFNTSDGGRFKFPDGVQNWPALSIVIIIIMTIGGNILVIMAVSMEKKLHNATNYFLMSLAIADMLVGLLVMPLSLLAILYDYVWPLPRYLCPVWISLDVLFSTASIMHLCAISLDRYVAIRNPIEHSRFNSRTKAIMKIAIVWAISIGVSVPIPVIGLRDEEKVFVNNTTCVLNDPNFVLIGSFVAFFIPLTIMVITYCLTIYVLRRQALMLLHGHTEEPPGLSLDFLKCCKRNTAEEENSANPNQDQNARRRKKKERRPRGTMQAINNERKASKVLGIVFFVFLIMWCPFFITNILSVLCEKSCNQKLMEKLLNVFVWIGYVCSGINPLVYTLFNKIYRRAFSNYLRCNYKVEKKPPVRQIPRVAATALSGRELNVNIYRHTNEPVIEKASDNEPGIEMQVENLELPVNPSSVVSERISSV
5-hydroxytryptamine receptor 7 (Homo sapiens), sequence (P34969 whole entry): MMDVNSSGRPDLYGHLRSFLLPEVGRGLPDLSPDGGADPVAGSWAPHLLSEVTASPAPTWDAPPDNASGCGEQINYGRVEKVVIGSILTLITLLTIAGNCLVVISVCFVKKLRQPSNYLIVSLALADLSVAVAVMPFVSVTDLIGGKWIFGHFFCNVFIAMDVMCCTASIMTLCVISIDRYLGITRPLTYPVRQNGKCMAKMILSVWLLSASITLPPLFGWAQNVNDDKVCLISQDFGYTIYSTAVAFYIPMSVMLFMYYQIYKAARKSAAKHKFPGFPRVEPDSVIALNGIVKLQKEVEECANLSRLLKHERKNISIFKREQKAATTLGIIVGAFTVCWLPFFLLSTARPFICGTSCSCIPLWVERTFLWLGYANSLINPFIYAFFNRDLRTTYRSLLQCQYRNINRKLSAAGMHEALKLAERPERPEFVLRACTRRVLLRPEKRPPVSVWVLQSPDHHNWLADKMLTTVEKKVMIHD

With `O=C(Nc1ccc(Oc2ccc(F)cc2)cc1)N1CCc2ncccc2[C@H]1c1ccc(F)cc1` [BAY-897], the Ki (commonly a measure of affinity in units of concentration, obtained from inhibition or displacement) in assay [1] turned out to be 5.25 µM; in assay [2] it was 1.08 µM.

In the case of `O=C(Nc1cnc(Oc2ccc(F)cc2)nc1)N1CCc2ncccc2[C@@H]1c1ccc(F)cc1` [BAY-899], the Activation (% of control) in assay [3] is -1%; in assay [4], -1%; in assay [5] it was 56%; in [6], 23%; in [8], -1%; in assay [9] it was 52%. The Activation (% of control) in [10] is -1%; in assay [11], 56%; in assay [12], 2%; in assay [13], 1%. Further, the Inhibition (% of control) is -5% in assay [3]; 12% in [4]; -10% in [5]; 6% in assay [6]; 28% in assay [8]; 4% in [9]. Also, the Inhibition (% of control) in assay [10] came out at 15%; in assay [11] it was 8%; in assay [12], 45%; in assay [13], 32%. Moreover, the inhibition (commonly the share of the control response that was lost under treatment) in [7] is 2.63%.
